Results reported in ChEMBL document CHEMBL3885881, “DrugMatrix”.

Species: Rattus norvegicus
Experiment: DrugMatrix - Regimen: Daily Repeat
Assay type: toxicity, organism-based, Sprague-Dawley
Design: regimen Daily Repeat, gender Male, age 6-8 weeks
Conditions: in vivo, po, route oral GAVAGE, vehicle .5 % CMC; for BASOPHIL / EOSINOPHIL / ERYTHROCYTE COUNT / HEMATOCRIT / HEMOGLOBIN / LEUKOCYTE COUNT / LYMPHOCYTE / MEAN CORPUSCULAR HEMOGLOBIN / MEAN CORPUSCULAR HEMOGLOBIN CONCENTRATION / MEAN CORPUSCULAR VOLUME / MONOCYTE / NEUTROPHIL / PLATELET COUNT: tissue Blood
[1] = 0 mg/kg, […], tissue Plasma, dose level Control, time 28 day
[2] = 30 mg/kg, 72 h, dose level M1, time 3 day
[3] = 30 mg/kg, 72 h, tissue Plasma, dose level M1, time 3 day
[4] = 30 mg/kg, 120 h, dose level M1, time 5 day
[5] = 30 mg/kg, 120 h, tissue Plasma, dose level M1, time 5 day
[6] = 300 mg/kg, 72 h, dose level High, time 3 day
[7] = 300 mg/kg, 72 h, tissue Plasma, dose level High, time 3 day
[8] = 300 mg/kg, 120 h, dose level High, time 5 day
[9] = 300 mg/kg, 120 h, tissue Plasma, dose level High, time 5 day

Cc1ccc2cc3c(ccc4ccccc43)c3c2c1CC3 [3-METHYLCHOLANTHRENE]
CHOLESTEROL [1]: 59.6 mg/dL
CREATINE PHOSPHOKINASE [1]: 121.8 u/L
CREATININE [1]: 0.6 mg/dL
GLUCOSE [1]: 143 mg/dL
LACTATE DEHYDROGENASE [1]: 87.8 u/L
LIPASE [1]: 17.4 u/L
PHOSPHORUS [1]: 8.68 mg/dL
POTASSIUM [1]: 6.02 MEQ/L
SODIUM [1]: 152.8 MEQ/L
TOTAL BILIRUBIN [1]: 0.26 mg/dL
TOTAL PROTEIN [1]: 6.92 G/DL
URIC ACID [1]: 0.52 mg/dL
BASOPHIL [2]: 0.4%
EOSINOPHIL [2]: 0.4%
ERYTHROCYTE COUNT [2]: 6.58 x10E6/uL
HEMATOCRIT [2]: 41.43%
HEMOGLOBIN [2]: 13.13 G/DL
LEUKOCYTE COUNT [2]: 12.08 x10E3/uL
LYMPHOCYTE [2]: 83.17%
MEAN CORPUSCULAR HEMOGLOBIN [2]: 20 pg
MEAN CORPUSCULAR HEMOGLOBIN CONCENTRATION [2]: 31.7 G/DL
MEAN CORPUSCULAR VOLUME [2]: 63.07 fL
MONOCYTE [2]: 2.4%
NEUTROPHIL [2]: 12.5%
PLATELET COUNT [2]: 1282.33 x10E3/uL
ALANINE AMINOTRANSFERASE [3]: 39.67 u/L
ALBUMIN [3]: 3.57 G/DL
ALKALINE PHOSPHATASE [3]: 304 u/L
ASPARTATE AMINOTRANSFERASE [3]: 67.67 u/L
BLOOD UREA NITROGEN [3]: 12.67 mg/dL
CHLORIDE [3]: 104 MEQ/L
CHOLESTEROL [3]: 97.67 mg/dL
CREATINE PHOSPHOKINASE [3]: 181.67 u/L
CREATININE [3]: 0.37 mg/dL
GLUCOSE [3]: 174.33 mg/dL
PHOSPHORUS [3]: 12.23 mg/dL
POTASSIUM [3]: 6.87 MEQ/L
SODIUM [3]: 147.67 MEQ/L
TOTAL BILIRUBIN [3]: 0.43 mg/dL
TOTAL PROTEIN [3]: 6.03 G/DL
BASOPHIL [4]: 0.43%
EOSINOPHIL [4]: 0.27%
ERYTHROCYTE COUNT [4]: 6.57 x10E6/uL
HEMATOCRIT [4]: 43.27%
HEMOGLOBIN [4]: 13.43 G/DL
LEUKOCYTE COUNT [4]: 10.87 x10E3/uL
LYMPHOCYTE [4]: 82.07%
MEAN CORPUSCULAR HEMOGLOBIN [4]: 20.43 pg
MEAN CORPUSCULAR HEMOGLOBIN CONCENTRATION [4]: 31.07 G/DL
MEAN CORPUSCULAR VOLUME [4]: 65.87 fL
MONOCYTE [4]: 2.43%
NEUTROPHIL [4]: 13.57%
PLATELET COUNT [4]: 1575.33 x10E3/uL
ALANINE AMINOTRANSFERASE [5]: 38.33 u/L
ALBUMIN [5]: 3.47 G/DL
ALKALINE PHOSPHATASE [5]: 335.67 u/L
ASPARTATE AMINOTRANSFERASE [5]: 70.67 u/L
BLOOD UREA NITROGEN [5]: 15 mg/dL
CHLORIDE [5]: 103.33 MEQ/L
CHOLESTEROL [5]: 82 mg/dL
CREATINE PHOSPHOKINASE [5]: 189.33 u/L
CREATININE [5]: 0.4 mg/dL
GLUCOSE [5]: 182 mg/dL
PHOSPHORUS [5]: 12.6 mg/dL
POTASSIUM [5]: 6.87 MEQ/L
SODIUM [5]: 148.33 MEQ/L
TOTAL BILIRUBIN [5]: 0.4 mg/dL
TOTAL PROTEIN [5]: 5.77 G/DL
BASOPHIL [6]: 0.4%
EOSINOPHIL [6]: 0.37%
ERYTHROCYTE COUNT [6]: 6.99 x10E6/uL
HEMATOCRIT [6]: 43.53%
HEMOGLOBIN [6]: 13.6 G/DL
LEUKOCYTE COUNT [6]: 10.06 x10E3/uL
LYMPHOCYTE [6]: 78.97%
MEAN CORPUSCULAR HEMOGLOBIN [6]: 19.47 pg
MEAN CORPUSCULAR HEMOGLOBIN CONCENTRATION [6]: 31.3 G/DL
MEAN CORPUSCULAR VOLUME [6]: 62.23 fL
MONOCYTE [6]: 2.83%
NEUTROPHIL [6]: 15.97%
PLATELET COUNT [6]: 1201 x10E3/uL
ALANINE AMINOTRANSFERASE [7]: 33.33 u/L
ALBUMIN [7]: 3.53 G/DL
ALKALINE PHOSPHATASE [7]: 316 u/L
ASPARTATE AMINOTRANSFERASE [7]: 60 u/L
BLOOD UREA NITROGEN [7]: 12.67 mg/dL
CHLORIDE [7]: 103.67 MEQ/L
CHOLESTEROL [7]: 97.67 mg/dL
CREATINE PHOSPHOKINASE [7]: 153 u/L
CREATININE [7]: 0.43 mg/dL
GLUCOSE [7]: 185.67 mg/dL
PHOSPHORUS [7]: 12.47 mg/dL
POTASSIUM [7]: 6.9 MEQ/L
SODIUM [7]: 147 MEQ/L
TOTAL BILIRUBIN [7]: 0.5 mg/dL
TOTAL PROTEIN [7]: 5.83 G/DL
BASOPHIL [8]: 0.55%
EOSINOPHIL [8]: 0.15%
ERYTHROCYTE COUNT [8]: 6.96 x10E6/uL
HEMATOCRIT [8]: 44.15%
HEMOGLOBIN [8]: 14.05 G/DL
LEUKOCYTE COUNT [8]: 9.75 x10E3/uL
LYMPHOCYTE [8]: 87.2%
MEAN CORPUSCULAR HEMOGLOBIN [8]: 20.2 pg
MEAN CORPUSCULAR HEMOGLOBIN CONCENTRATION [8]: 31.8 G/DL
MEAN CORPUSCULAR VOLUME [8]: 63.45 fL
MONOCYTE [8]: 2.05%
NEUTROPHIL [8]: 8.8%
PLATELET COUNT [8]: 1398 x10E3/uL
ALANINE AMINOTRANSFERASE [9]: 37 u/L
ALBUMIN [9]: 3.63 G/DL
ALKALINE PHOSPHATASE [9]: 280 u/L
ASPARTATE AMINOTRANSFERASE [9]: 66.33 u/L
BLOOD UREA NITROGEN [9]: 14.67 mg/dL
CHLORIDE [9]: 103 MEQ/L
CHOLESTEROL [9]: 112 mg/dL
CREATINE PHOSPHOKINASE [9]: 163.67 u/L
CREATININE [9]: 0.4 mg/dL
GLUCOSE [9]: 178.33 mg/dL
PHOSPHORUS [9]: 13.37 mg/dL
POTASSIUM [9]: 7.9 MEQ/L
SODIUM [9]: 147.33 MEQ/L
TOTAL BILIRUBIN [9]: 0.4 mg/dL
TOTAL PROTEIN [9]: 6.13 G/DL
